Results taken from patent US9212182B2, “Bicyclic sulfonamide compounds as sodium channel inhibitors” (AMGEN INC., priority 2013, dated 2015).
Like-named read-outs stand apart in the source and are kept apart here.

Molecular target: Nav 1.7 (Homo sapiens (Human), UniProt Q15858)
Assay: in-vitro Nav 1.7 PX (IC50)
Assay type: cell-based
[1] = in-vitro Nav 1.7 PX data (PatchXpress)

Sequence of Nav 1.7 (Q15858 whole entry): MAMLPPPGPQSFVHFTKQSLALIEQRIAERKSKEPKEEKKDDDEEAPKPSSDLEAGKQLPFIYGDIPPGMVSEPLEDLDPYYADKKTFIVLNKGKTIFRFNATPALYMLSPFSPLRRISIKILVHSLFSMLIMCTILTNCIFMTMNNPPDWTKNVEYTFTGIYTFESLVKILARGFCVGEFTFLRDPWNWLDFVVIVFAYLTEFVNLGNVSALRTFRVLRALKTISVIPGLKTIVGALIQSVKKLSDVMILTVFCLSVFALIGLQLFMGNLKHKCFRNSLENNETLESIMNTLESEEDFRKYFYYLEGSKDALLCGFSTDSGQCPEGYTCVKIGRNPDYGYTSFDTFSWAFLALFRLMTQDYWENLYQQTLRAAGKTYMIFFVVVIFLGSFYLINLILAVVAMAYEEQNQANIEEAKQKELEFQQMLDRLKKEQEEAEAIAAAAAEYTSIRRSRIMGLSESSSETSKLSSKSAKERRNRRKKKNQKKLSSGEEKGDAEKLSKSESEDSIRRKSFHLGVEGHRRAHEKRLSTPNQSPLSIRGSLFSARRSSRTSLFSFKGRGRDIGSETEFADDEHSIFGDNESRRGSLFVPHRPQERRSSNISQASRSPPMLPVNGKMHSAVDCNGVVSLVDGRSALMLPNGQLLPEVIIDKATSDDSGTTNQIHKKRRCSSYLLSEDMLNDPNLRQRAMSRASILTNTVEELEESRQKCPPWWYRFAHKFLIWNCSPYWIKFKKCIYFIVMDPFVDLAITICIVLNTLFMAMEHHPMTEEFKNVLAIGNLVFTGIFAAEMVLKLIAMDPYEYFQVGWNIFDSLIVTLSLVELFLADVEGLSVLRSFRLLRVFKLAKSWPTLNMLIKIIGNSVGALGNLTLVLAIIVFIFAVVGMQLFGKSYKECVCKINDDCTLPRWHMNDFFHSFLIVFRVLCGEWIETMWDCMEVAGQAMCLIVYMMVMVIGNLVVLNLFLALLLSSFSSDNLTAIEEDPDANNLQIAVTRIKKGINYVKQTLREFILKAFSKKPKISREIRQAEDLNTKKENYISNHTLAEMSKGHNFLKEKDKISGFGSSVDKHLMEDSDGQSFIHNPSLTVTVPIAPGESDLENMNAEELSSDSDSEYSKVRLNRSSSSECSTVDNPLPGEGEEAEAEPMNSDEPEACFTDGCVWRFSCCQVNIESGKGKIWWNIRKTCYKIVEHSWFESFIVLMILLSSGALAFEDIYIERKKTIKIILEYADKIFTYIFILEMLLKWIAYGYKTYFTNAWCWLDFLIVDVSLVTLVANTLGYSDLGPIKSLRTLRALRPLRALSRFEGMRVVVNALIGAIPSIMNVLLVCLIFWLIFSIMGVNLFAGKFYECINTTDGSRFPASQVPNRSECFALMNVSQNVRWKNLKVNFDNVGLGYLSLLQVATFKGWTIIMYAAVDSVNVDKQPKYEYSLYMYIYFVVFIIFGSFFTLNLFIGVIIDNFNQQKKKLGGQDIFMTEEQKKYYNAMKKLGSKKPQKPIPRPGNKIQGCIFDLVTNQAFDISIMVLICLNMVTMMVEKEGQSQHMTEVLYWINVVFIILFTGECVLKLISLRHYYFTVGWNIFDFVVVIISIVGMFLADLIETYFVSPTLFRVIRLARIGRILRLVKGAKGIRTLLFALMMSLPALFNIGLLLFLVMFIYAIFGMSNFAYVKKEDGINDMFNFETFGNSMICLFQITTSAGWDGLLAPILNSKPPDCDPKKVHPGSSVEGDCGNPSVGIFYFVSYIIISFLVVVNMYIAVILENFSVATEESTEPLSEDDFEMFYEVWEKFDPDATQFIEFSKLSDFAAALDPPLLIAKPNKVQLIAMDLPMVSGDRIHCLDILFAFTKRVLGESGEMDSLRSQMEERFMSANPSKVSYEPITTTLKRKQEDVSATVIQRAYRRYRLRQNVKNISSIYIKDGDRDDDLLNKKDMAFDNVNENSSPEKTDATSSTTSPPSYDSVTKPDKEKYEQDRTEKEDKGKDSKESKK

COc1cc(-c2ccc(F)c(F)c2)c(F)cc1-n1c(=O)ccc2cc(S(=O)(=O)Nc3ncco3)ccc21 [Example 936, N-1,3-oxazol-2-yl-2-oxo-1-(2,3′,4′-trifluoro-5-methoxy-4-biphenylyl)-1,2-dihydro-6-quinolinesulfonamide]
IC50 (in-vitro Nav 1.7 PX data): 41 nM

COc1cc(Cl)c(-c2cc(F)cc(Cl)c2)cc1-n1c(=O)ccc2cc(S(=O)(=O)Nc3ccon3)ccc21 (atropisomer, axis not shown; (P)) [Example 614, (P)-1-(3′,6-dichloro-5′-fluoro-4-methoxy-3-biphenylyl)-N-3-isoxazolyl-2-oxo-1,2-dihydro-6-quinolinesulfonamide]
IC50 (in-vitro Nav 1.7 PX data): 9 nM

COc1cc(-c2ccc(C3CC3)cc2)c(F)cc1-n1c(=O)ccc2cc(S(=O)(=O)Nc3ccon3)ccc21 [Example 757, 1-(4′-cyclopropyl-2-fluoro-5-methoxy-4-biphenylyl)-N-3-isoxazolyl-2-oxo-1,2-dihydro-6-quinolinesulfonamide]
IC50 (in-vitro Nav 1.7 PX data): 35 nM

COc1cc(-c2cc(OC)c(-n3c(=O)ccc4cc(S(=O)(=O)Nc5ncco5)ccc43)cc2F)ccc1F [Example 1011, 1-(2,4′-difluoro-3′,5-dimethoxy-4-biphenylyl)-N-1,3-oxazol-2-yl-2-oxo-1,2-dihydro-6-quinolinesulfonamide]
IC50 (in-vitro Nav 1.7 PX data): 207 nM

COc1cc(-c2cccc(C(F)(F)F)c2)ccc1-n1c(=O)ccc2cc(S(=O)(=O)Nc3cncc(C)n3)ccc21 [Example 950, 1-(3-methoxy-3′-(trifluoromethyl)-4-biphenylyl)-N-(6-methyl-2-pyrazinyl)-2-oxo-1,2-dihydro-6-quinolinesulfonamide]
IC50 (in-vitro Nav 1.7 PX data): 99 nM

COc1cc(N2CC(C(F)(F)F)C2)c(F)cc1-n1c(=O)ccc2cc(S(=O)(=O)Nc3ccon3)ccc21 [Example 530, 1-(5-fluoro-2-methoxy-4-(3-(trifluoromethyl)-1-azetidinyl)phenyl)-N-3-isoxazolyl-2-oxo-1,2-dihydro-6-quinolinesulfonamide]
IC50 (in-vitro PatchXpress (PX)): 495 nM

COc1cc(-c2cc(OC)c(-n3c(=O)ccc4cc(S(=O)(=O)Nc5ccon5)ccc43)cc2F)ccn1 [Example 739, 1-(5-fluoro-2-methoxy-4-(2-methoxy-4-pyridinyl)phenyl)-N-3-isoxazolyl-2-oxo-1,2-dihydro-6-quinolinesulfonamide]
IC50 (in-vitro Nav 1.7 PX data): 224 nM

COc1cc(-c2ccc(Cl)c(C)c2)c(Cl)cc1-n1c(=O)ccc2cc(S(=O)(=O)Nc3ccon3)ccc21 (atropisomer, axis not shown; (M)) [Example 472, (M)-1-(2,4′-dichloro-5-methoxy-3′-methyl-[1,1′-biphenyl]-4-yl)-N-(isoxazol-3-yl)-2-oxo-1,2-dihydroquinoline-6-sulfonamide]
IC50: 786 nM

COc1cc(-c2ccc(Cl)cc2)c(F)cc1-n1c(=O)ccc2cc(S(=O)(=O)Nc3ccnc(C)n3)ccc21 [Example 751, 1-(4′-chloro-2-fluoro-5-methoxy-4-biphenylyl)-N-(2-methyl-4-pyrimidinyl)-2-oxo-1,2-dihydro-6-quinolinesulfonamide]
IC50 (in-vitro Nav 1.7 PX data): 67 nM

COc1cc(-c2cccc(C(C)C)c2)ccc1-n1c(=O)ccc2cc(S(=O)(=O)Nc3ccon3)ccc21 [Example 783, N-3-isoxazolyl-1-(3-methoxy-3′-(1-methylethyl)-4-biphenylyl)-2-oxo-1,2-dihydro-6-quinolinesulfonamide]
IC50 (in-vitro Nav 1.7 PX data): 9 nM

COc1nc(Oc2ccc(F)cc2F)c(Cl)cc1-n1c(=O)ccc2cc(S(=O)(=O)Nc3ccon3)ccc21 [Example 1221, 1-(5-chloro-6-(2,4-difluorophenoxy)-2-methoxy-3-pyridinyl)-N-3-isoxazolyl-2-oxo-1,2-dihydro-6-quinolinesulfonamide]
IC50: 2590 nM

COc1cc(-c2ccc(Cl)cc2)c(F)cc1-n1c(=O)ccc2cc(S(=O)(=O)Nc3ncco3)ccc21 [Example 753, 1-(4′-chloro-2-fluoro-5-methoxy-4-biphenylyl)-N-1,3-oxazol-2-yl-2-oxo-1,2-dihydro-6-quinolinesulfonamide]
IC50 (in-vitro Nav 1.7 PX data): 37 nM

COc1cc(Cl)ccc1-c1ccc(-n2c(=O)ccc3cc(S(=O)(=O)Nc4ccon4)ccc32)c(OC)c1 [Example 816, 1-(4′-chloro-2′,3-dimethoxy-4-biphenylyl)-N-3-isoxazolyl-2-oxo-1,2-dihydro-6-quinolinesulfonamide]
IC50 (in-vitro Nav 1.7 PX data): 27 nM

COc1ccc(-c2cc(F)cc(Cl)c2)cc1-n1c(=O)ccc2cc(S(=O)(=O)Nc3cnccn3)ccc21 [Example 860, 1-(3′-chloro-5′-fluoro-4-methoxy-3-biphenylyl)-2-oxo-N-2-pyrazinyl-1,2-dihydro-6-quinolinesulfonamide]
IC50 (in-vitro Nav 1.7 PX data): 251 nM

COc1cc(-c2ccc(C)cc2Cl)ccc1-n1c(=O)ccc2cc(S(=O)(=O)Nc3ccon3)ccc21 [Example 1060, 1-(2′-chloro-3-methoxy-4′-methyl-4-biphenylyl)-N-3-isoxazolyl-2-oxo-1,2-dihydro-6-quinolinesulfonamide]
IC50 [1]: 28 nM

COc1cc(-c2cccc(C)c2)c(F)cc1-n1c(=O)ccc2cc(S(=O)(=O)Nc3ncc(F)cn3)ccc21 [Example 1109, 1-(2-fluoro-5-methoxy-3′-methyl-4-biphenylyl)-N-(5-fluoro-2-pyrimidinyl)-2-oxo-1,2-dihydro-6-quinolinesulfonamide]
IC50 (in-vitro Nav 1.7 PX data): 20 nM

COc1ccc(-c2ccc(C)c(Cl)c2)cc1-n1c(=O)ccc2cc(S(=O)(=O)Nc3ccon3)ccc21 [Example 885, 1-(3′-chloro-4-methoxy-4′-methyl-3-biphenylyl)-N-3-isoxazolyl-2-oxo-1,2-dihydro-6-quinolinesulfonamide]
IC50 (in-vitro Nav 1.7 PX data): 12 nM

COc1cc(-c2ccc(Cl)c(C)c2)ccc1-n1c(=O)ccc2cc(S(=O)(=O)Nc3ccon3)ccc21 (atropisomer, axis not shown; (M)) [Example 431, (M)-1-(4′-chloro-3-methoxy-3′-methyl-4-biphenylyl)-N-3-isoxazolyl-2-oxo-1,2-dihydro-6-quinolinesulfonamide]
IC50: 5050 nM

COc1cc(-c2cccc(F)c2)c(Cl)cc1-n1c(=O)cc(C)c2cc(S(=O)(=O)Nc3ccon3)ccc21 [Example 349, M-1-(2-chloro-3′-fluoro-5-methoxy-[1,1′-biphenyl]-4-yl)-N-(isoxazol-3-yl)-4-methyl-2-oxo-1,2-dihydroquinoline-6-sulfonamide]
IC50: 10600 nM

COc1cc(-c2cc(C)cc(C)c2)c(F)cc1-n1c(=O)ccc2cc(S(=O)(=O)Nc3ccon3)ccc21 [Example 706, 1-(2-fluoro-5-methoxy-3′,5′-dimethyl-4-biphenylyl)-N-3-isoxazolyl-2-oxo-1,2-dihydro-6-quinolinesulfonamide]
IC50 (in-vitro Nav 1.7 PX data): 14 nM

COc1cc(-c2cc(F)c(F)cc2F)c(F)cc1-n1c(=O)ccc2cc(S(=O)(=O)Nc3ccon3)ccc21 (atropisomer, axis not shown; (M)) [Example 517, (M)-N-3-isoxazolyl-2-oxo-1-(2,2′,4′,5′-tetrafluoro-5-methoxy-4-biphenylyl)-1,2-dihydro-6-quinolinesulfonamide]
IC50 (in-vitro PatchXpress (PX)): 21 nM

COc1cccc(-c2cc(OC)c(-n3c(=O)ccc4cc(S(=O)(=O)Nc5ccon5)ccc43)cc2F)c1 [Example 709, 1-(2-fluoro-3′,5-dimethoxy-4-biphenylyl)-N-3-isoxazolyl-2-oxo-1,2-dihydro-6-quinolinesulfonamide]
IC50 (in-vitro Nav 1.7 PX data): 47 nM

COc1cc(-c2ccc(OC(F)(F)F)cc2)c(F)cc1-n1c(=O)ccc2cc(S(=O)(=O)Nc3ccon3)ccc21 [Example 760, 1-(2-fluoro-5-methoxy-4′-(trifluoromethoxy)-4-biphenylyl)-N-3-isoxazolyl-2-oxo-1,2-dihydro-6-quinolinesulfonamide]
IC50 (in-vitro Nav 1.7 PX data): 15 nM

COc1ccc(-c2ccc(-n3c(=O)ccc4cc(S(=O)(=O)Nc5ccon5)ccc43)c(OC)c2)c(Cl)c1 [Example 1061, 1-(2′-chloro-3,4′-dimethoxy-4-biphenylyl)-N-3-isoxazolyl-2-oxo-1,2-dihydro-6-quinolinesulfonamide]
IC50 [1]: 61 nM

O=c1ccc2cc(S(=O)(=O)Nc3ccon3)ccc2n1-c1cc(F)c(-c2cc(F)cc(F)c2)cc1OC1CNC1 [Example 670, 1-(5-(azetidin-3-yloxy)-2,3′,5′-trifluoro-[1,1′-biphenyl]-4-yl)-N-(isoxazol-3-yl)-2-oxo-1,2-dihydroquinoline-6-sulfonamide 2,2,2-trifluoroacetate]
IC50: 39 nM

O=c1ccc2cc(S(=O)(=O)Nc3nncs3)ccc2n1-c1ccc(-c2cc(F)cc(F)c2)cc1C1CC1 [Example 1047, 1-(3-cyclopropyl-3′,5′-difluoro-4-biphenylyl)-2-oxo-N-1,3,4-thiadiazol-2-yl-1,2-dihydro-6-quinolinesulfonamide]
IC50 [1]: 6500 nM

COc1cc(-c2cccc(C(F)(F)F)c2)ccc1-n1c(=O)ccc2cc(S(=O)(=O)Nc3cccc(F)n3)ccc21 (atropisomer, axis not shown; (P)) [Example 1242, (P)—N-(6-fluoro-2-pyridinyl)-1-(3-methoxy-3′-(trifluoromethyl)-4-biphenylyl)-2-oxo-1,2-dihydro-6-quinolinesulfonamide]
IC50: 79 nM

COc1cc(-c2cc(F)cnc2OC)c(C)cc1-n1c(=O)ccc2cc(S(=O)(=O)Nc3ccon3)ccc21 (atropisomer, axis not shown; (M)) [Example 425, (M)-1-(4-(5-fluoro-2-methoxy-3-pyridinyl)-2-methoxy-5-methylphenyl)-N-3-isoxazolyl-2-oxo-1,2-dihydro-6-quinolinesulfonamide]
IC50: 20100 nM

COc1cc(-c2ccc(C)c(C)c2)c(F)cc1-n1c(=O)ccc2cc(S(=O)(=O)Nc3ccon3)ccc21 [Example 704, 1-(2-fluoro-5-methoxy-3′,4′-dimethyl-4-biphenylyl)-N-3-isoxazolyl-2-oxo-1,2-dihydro-6-quinolinesulfonamide]
IC50 (in-vitro Nav 1.7 PX data): 16 nM

COc1cc(-c2cc(Cl)ccc2C#N)c(F)cc1-n1c(=O)ccc2cc(S(=O)(=O)Nc3ccon3)ccc21 [Example 758, 1-(5′-chloro-2′-cyano-2-fluoro-5-methoxy-4-biphenylyl)-N-3-isoxazolyl-2-oxo-1,2-dihydro-6-quinolinesulfonamide]
IC50 (in-vitro Nav 1.7 PX data): 20 nM

COc1ccc(C2CCOCC2)cc1-n1c(=O)ccc2cc(S(=O)(=O)Nc3ccon3)ccc21 [Example 620, N-3-isoxazolyl-1-(2-methoxy-5-(tetrahydro-2H-pyran-4-yl)phenyl)-2-oxo-1,2-dihydro-6-quinolinesulfonamide]
IC50 (in-vitro Nav 1.7 PX data): 8100 nM
